The source of these data is ChEMBL document CHEMBL1153219, “Evaluation of human neutrophil elastase inhibitory effect of iridoid glycosides from Hedyotis diffusa” (Bioorg Med Chem Lett, 2010).

This test has as its target T1, Neutrophil elastase (Homo sapiens, UniProt P08246).
T1 sequence (P08246 whole entry): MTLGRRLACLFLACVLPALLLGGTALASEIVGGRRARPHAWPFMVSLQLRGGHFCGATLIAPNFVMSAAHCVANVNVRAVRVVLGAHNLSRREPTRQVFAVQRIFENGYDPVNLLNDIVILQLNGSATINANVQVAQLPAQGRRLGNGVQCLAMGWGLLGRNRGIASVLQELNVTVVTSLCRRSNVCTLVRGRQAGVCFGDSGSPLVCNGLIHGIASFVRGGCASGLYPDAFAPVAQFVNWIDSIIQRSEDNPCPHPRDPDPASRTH
Kind of test: Inhibition of human neutrophil elastase.

For `O=C(O[C@@H]1Cc2c(O)cc(O)cc2O[C@@H]1c1cc(O)c(O)c(O)c1)c1cc(O)c(O)c(O)c1` [EPIGALOCATECHIN GALLATE], half-maximal inhibition (IC50) was put at 12.8 µM.
